Data: publication PMC8942850, “Boron clusters as broadband membrane carriers” (Nature, 2022)

How the values were obtained:
[1] = HPTS/DPX transport assay in zwitterionic EYPC vesicles; assay type: in vitro ADME; settings: for Y Conventional / Y Reverse: Extended Data Fig. 4d; for Ymax (%) maximal activity, carrier activity: 13 µM lipid, 10 mM Tris, 107 mM NaCl, HPTS fluorescence
Description: The well-established HPTS/DPX assay, which uses 8-hydroxypyrene-1,3,6-trisulfonate (HPTS) and p-xylene-bis-pyridinium (DPX), was implemented to monitor peptide-transport activation (Fig. 2a). […] A surfactant (Triton X-100) was added at the end of the experiment (t = 600 s) to release all vesicle content and normalize the fluorescence intensity data.
Fig. 2 Carrier activity obtained from the HPTS/DPX assay. a, Schematic representation of the transport of otherwise impermeable analytes facilitated by superchaotropic cluster anions with encapsulated HPTS/DPX probe/quencher pair used for signalling. […] Concentrations of carrier and cargo, when fixed, were 40 and 20 µM, respectively, unless explicitly stated. Source data
A thin lipid film was prepared by evaporating a lipid solution with a stream of nitrogen and then dried in vacuo overnight.
Fluorescence intensities were normalized to fractional emission as I(t) = (It − I0)/(I∞ − I0), where I0 = It before cluster addition and I∞ = It after lysis.
In the activator measurements, in which different activators were tested with the same cargo, the activator efficiency (Ea) is determined from their ability to activate the transport of an impermeable cargo molecule and is characterized by Ymax, its maximal activity, and EC50, the effective activator concentration. A potent activator reaches high Ymax at low EC50. To reflect both factors, the activator efficiency is defined as Ea = Ymax × (pEC50/fa), where pEC50 is the negative logarithm of EC50.
In the transport measurements, in which different types of cargo were tested with the same activator, the transport efficiency (Et) reports on the sensitivity of the cargo for being transported and is described by Ymax, the maximal activity, and EC50, the effective cargo concentration. An easily accessible cargo reaches high Ymax at low EC50. The transport efficiency is defined as a composition of both parameters according to Et = Ymax × (pEC50/ft), where pEC50 is the negative logarithm of EC50.
Extended Data Fig. 3 Transport activity. a, Transport activity, Y, in EYPC⊃HPTS/DPX vesicles as a function of cluster concentration at constant cargo concentration (WR7, 20 µM). b, Transport activity, Y, for B12Br12^2− (40 µM) in EYPC⊃HPTS/DPX vesicles as a function of the concentration of different cargo types; red lines correspond to the resulting fit with the Hill equation. Source data

HeLa cells [2] = assay: Flow cytometry of total TAMRA-R8 uptake; assay type: cell-based; settings: for mean_of_medians: Extended Data Fig.5a, mean of n = 3
Description: HeLa cells were seeded at 10,000 cells per well in 96-well plates. The next day, they were incubated for 1 h with the indicated compounds diluted in HKR. Cells were subsequently washed for 5 min with HKR containing 0.1 mg ml^−1 heparin, washed again with HKR and trypsinized. Trypsin was neutralized with PBS containing 2% FBS and 5 mM EDTA. TAMRA fluorescence was excited with a green laser (532 nm) and measured on a Guava easyCyte BG HT collecting the emission at 620/52 nm (Orange-G channel) and using InCyte v.3.2 (GuavaSoft, Millipore). Data were analysed with R (v.4.0.3)[54] and the packages CytoExploreR (v.1.0.8)[56] and ggcyto (v.1.18.0)[57] Cells with typical FSC and SSC parameters were selected and the median fluorescence intensity calculated for each sample. Each condition was measured in triplicate.
Cells were incubated with 1 µM peptide, in the absence or presence of 10 µM cluster for 1 h. […] After medium removal and solubilization with DMSO, the absorbance at 570 nm was measured. Values were normalized to the untreated cell control (100%). Data are mean ± s.d. of three replicates. Source data

HeLa cells [3] = assay: Cytosolic TAMRA-R8 concentration (digitonin fractionation, fluorescence); assay type: cell-based; settings: Extended Data Fig.5d; for concentration_uM, mean: mean of 4 experiments
Description: Cytosolic extracts were obtained according to a previously described protocol[55] by incubation with digitonin, a steroidal saponin that preferentially permeabilizes cholesterol-rich membranes, such as the plasma membrane, with minor effects on intracellular membranes. […] Cells were incubated on ice with 600 µl of 35 µg ml^−1 digitonin in PBS Ca/Mg for 10 min, the supernatant with the cytosolic fraction collected and cells washed with 200 µl of PBS Ca/Mg, combining this supernatant with the previous extract. The non-cytosolic fraction was collected by incubation of the cells with 800 µl of 1% Triton X-100 in PBS. […] For the complementary HPLC analysis, phosphate buffer was replaced by TBS (20 mM Tris–HCl, pH 7.2, 150 mM NaCl, 0.5 mM CaCl2, 0.5 mM MgCl2) and digitonin extraction was performed as indicated above. An aliquot of these extracts was used for β-hexosaminidase activity determination. Cytosolic extracts were lyophilized and resuspended in 1:10 volumes of H2O:CH3CN 1:1 with 1% TFA, and analysed by HPLC (RP-HPLC Agilent Luna 5U C18 100 Å, H2O (0.1% TFA)/CH3CN (0.1% TFA) 100:0 (0→5 min); 100:0→5:95 (5→20 min)) by monitoring the 555-nm absorbance of the TAMRA chromophore.
The quality of fractionation was assessed by lysosomal β-hexosaminidase activity, using 4-nitrophenyl 2-acetamido-2-deoxy-β-D-glucopyranoside as substrate. Briefly, 20 µl of extract was incubated with 80 µl of 7.5 mM substrate in 100 mM citrate buffer, pH 4.7, for 40 min at 37 °C, and the reaction was stopped by addition of 200 µl of 0.2 M Tris solution. Absorbance at 405 nm was measured in a plate reader. As blank, wells containing only the substrate were used. […]

Substance: B12Br12^2−
- Ea activator efficiency ([1]; Ea = Ymax × (pEC50/fa), fa = 20.6, WR7 (20 μM) cargo, 10% error (SD)): 6.1
- Y Conventional ([1]; [B12Br12] 1.00E-04 M): 0.7375
- Y Reverse ([1]; [B12Br12] 1.00E-04 M): 0.7289
- Y Conventional ([1]; [B12Br12] 1.00E-05 M): 0.08156
- Y Reverse ([1]; [B12Br12] 1.00E-05 M): 0.07644
- Y Conventional ([1]; [B12Br12] 1.00E-08 M): 0.00214
- Y Reverse ([1]; [B12Br12] 1.00E-08 M): 9.09E-04
- Y Conventional ([1]; [B12Br12] 1.20E-04 M): 0.8093
- Y Reverse ([1]; [B12Br12] 1.20E-04 M): 0.8173
- Y Conventional ([1]; [B12Br12] 1.50E-04 M): 0.8756
- Y Conventional ([1]; [B12Br12] 2.00E-05 M): 0.1885
- Y Reverse ([1]; [B12Br12] 2.00E-05 M): 0.1615
- Y Conventional ([1]; [B12Br12] 2.50E-04 M): 0.8813
- Y Reverse ([1]; [B12Br12] 2.50E-04 M): 0.8905
- Y Conventional ([1]; [B12Br12] 3.00E-05 M): 0.3307
- Y Reverse ([1]; [B12Br12] 3.00E-05 M): 0.3469
- Y Conventional ([1]; [B12Br12] 4.00E-05 M): 0.4335
- Y Conventional ([1]; [B12Br12] 5.00E-06 M): 0.03975
- Y Conventional ([1]; [B12Br12] 6.00E-05 M): 0.5294
- Y Reverse ([1]; [B12Br12] 6.00E-05 M): 0.5266
- Y Conventional ([1]; [B12Br12] 8.00E-05 M): 0.6371
- Ymax (%) maximal activity, carrier activity ([1]; carrier concentration varied, WR7 (20 μM) as common cargo, EYPC⊃HPTS/DPX vesicles, pH 7.4, Hill analysis, 10% error (SD) unless stated, n.a. = no detectable activity, d.l. = dye leakage, no determination possible): 95 ± 5%
- Ymax (%) maximal activity, carrier activity ([1]; carrier concentration varied, WR7 (20 μM) as common cargo, EYPC⊃HPTS/DPX vesicles, pH 7.4, Hill analysis, 10% error (SD) unless stated, n.a. = no detectable activity, d.l. = dye leakage, no determination possible, listed as brominated cluster): 95%
- EC50 ([1]; read-out: EC50 (μM) effective carrier concentration to reach 50% of Ymax, carrier concentration varied, WR7 (20 μM) as common cargo, EYPC⊃HPTS/DPX vesicles, pH 7.4, Hill analysis, 10% error (SD) unless stated, n.a. = no detectable activity, d.l. = dye leakage, no determination possible): 48 µM
- mean_of_medians (HeLa cells [2]; 10 uM cluster, Tm-R8 0 uM): 56.9232
- mean_of_medians (HeLa cells [2]; 10 uM cluster, Tm-R8 1 uM): 648.983
- mean_of_medians (HeLa cells [2]; 50 uM cluster, Tm-R8 0 uM): 50.2824
- mean_of_medians (HeLa cells [2]; 50 uM cluster, Tm-R8 1 uM): 905.363
- Enhancement of total TAMRA-R8 uptake (flow cytometry) (HeLa cells [2]; HeLa, 1 µM TAMRA-R8, 10 or 50 µM cluster, 1 h): most active carrier
- concentration_uM (HeLa cells [3]; 0 uM B12Br12 (no carrier), experiment 1): 286.3 nM
- concentration_uM (HeLa cells [3]; 0 uM B12Br12 (no carrier), experiment 2): 345 nM
- concentration_uM (HeLa cells [3]; 0 uM B12Br12 (no carrier), experiment 3): 274.3 nM
- concentration_uM (HeLa cells [3]; 0 uM B12Br12 (no carrier), experiment 4): 342.3 nM
- concentration_uM, mean (HeLa cells [3]; 0 uM B12Br12 (no carrier)): 312 nM
- concentration_uM (HeLa cells [3]; 10 uM B12Br12, experiment 1): 1393 nM
- concentration_uM (HeLa cells [3]; 10 uM B12Br12, experiment 2): 1647 nM
- concentration_uM (HeLa cells [3]; 10 uM B12Br12, experiment 3): 1247 nM
- concentration_uM (HeLa cells [3]; 10 uM B12Br12, experiment 4): 1117 nM
- concentration_uM, mean (HeLa cells [3]; 10 uM B12Br12): 1351 nM
